Laboratory results as given in the supplement of paper PMC11061612.

Tests used:
AZD6738 = compound: C[C@@H]1COCCN1C2=NC(=NC(=C2)C3(CC3)[S@](=N)(=O)C)C4=C5C=CNC5=NC=C4 [AZD6738]; details: max 10 µM
Summary of the method: (§1)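 Cancer cell lines in 1536-well plates (7.5 μl DMEM/F12 or RPMI, 10% FBS) were held 24 hours at 37°C and 5% CO2 and then dosed for 72 hours at a final DMSO of typically 0.2%. Viability was taken from CellTiter-Glo 2.0 luminescence, scaled between blank-well and DMSO-well means. Curves were fitted as two-parameter logistic models with a non-linear mixed effects model, from which the single-agent IC50 was taken.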

AZD8186 = compound: C[C@@H](Nc1cc(F)cc(F)c1)c1cc(C(=O)N(C)C)cc2c(=O)cc(N3CCOCC3)oc12 [AZD8186]; details: max 10 µM
Summary of the method: as §1

SN-38 = compound: CCc1c2c(nc3ccc(O)cc13)-c1cc3c(c(=O)n1C2)COC(=O)[C@]3(O)CC [SN-38]; details: max 0.3 µM
Summary of the method: as §1

AZD7648 = compound: Cc1cc2ncnn2cc1Nc1ncc2c(n1)n(C1CCOCC1)c(=O)n2C [AZD7648]; details: max 10 µM
Summary of the method: as §1

Trametinib = compound: CC(=O)Nc1cccc(-n2c(=O)n(C3CC3)c(=O)c3c(Nc4ccc(I)cc4F)n(C)c(=O)c(C)c32)c1 [Trametinib]; details: max 1 µM
Summary of the method: as §1

Selumetinib = compound: Cn1cnc2c(F)c(Nc3ccc(Br)cc3Cl)c(C(=O)NOCCO)cc21 [Selumetinib]; details: max 10 µM
Summary of the method: as §1

Doxorubicin = compound: COc1cccc2c1C(=O)c1c(O)c3c(c(O)c1C2=O)C[C@@](O)(C(=O)CO)C[C@@H]3O[C@H]1C[C@H](N)[C@H](O)[C@H](C)O1 [Doxorubicin]; details: max 1 µM
Summary of the method: as §1

AZD5363 = compound: C1CN(CCC1(C(=O)N[C@@H](CCO)C2=CC=C(C=C2)Cl)N)C3=NC=NC4=C3C=CN4 [AZD5363]; details: max 10 µM
Summary of the method: as §1

Palbociclib = compound: CC(=O)c1c(C)c2cnc(Nc3ccc(N4CCNCC4)cn3)nc2n(C2CCCC2)c1=O [Palbociclib]; details: max 10 µM
Summary of the method: as §1

Carboplatin = compound: C1CC(C1)(C(=O)[O-])C(=O)[O-].N.N.[Pt+2] [Carboplatin]; details: max 10 µM
Summary of the method: as §1

AZD4320 = compound: CN(CC[C@H](CSC1=CC=CC=C1)NC2=C(C=C(C=C2)S(=O)(=O)NC(=O)C3=CC=C(C=C3)N4CCC(CC4)[C@H](C5=CC=CC=C5C6=CC=C(C=C6)Cl)O)S(=O)(=O)C(F)(F)F)CCO [AZD4320]; details: max 1 µM
Summary of the method: as §1

Prexasertib = compound: COc1cccc(OCCCN)c1-c1cc(Nc2cnc(C#N)cn2)n[nH]1 [Prexasertib]; details: max 1 µM
Summary of the method: as §1

SRA737 = compound: N#Cc1cnc(Nc2cc(NC[C@H]3CNCCO3)c(C(F)(F)F)cn2)cn1 [SRA737]; details: max 10 µM
Summary of the method: as §1

Venetoclax = compound: CC1(C)CCC(CN2CCN(c3ccc(C(=O)NS(=O)(=O)c4ccc(NCC5CCOCC5)c([N+](=O)[O-])c4)c(Oc4cnc5[nH]ccc5c4)c3)CC2)=C(c2ccc(Cl)cc2)C1 [Venetoclax]; details: max 1 µM
Summary of the method: as §1

MK-2206 = compound: NC1(c2ccc(-c3nc4ccn5c(=O)[nH]nc5c4cc3-c3ccccc3)cc2)CCC1 [MK-2206]; details: max 10 µM
Summary of the method: as §1

SG3199 = compound: CC1=CN2[C@@H](C1)C=NC3=CC(=C(C=C3C2=O)OC)OCCCCCOC4=C(C=C5C(=C4)N=C[C@@H]6CC(=CN6C5=O)C)OC [SG3199]; details: max 0.001 µM
Summary of the method: as §1

Gefitinib = compound: COc1cc2ncnc(Nc3ccc(F)c(Cl)c3)c2cc1OCCCN1CCOCC1 [Gefitinib]; details: max 10 µM
Summary of the method: as §1

AZD5991 = compound: Cc1c2c(nn1C)CSCc1cc(n(C)n1)CSc1cc(c3ccccc3c1)OCCCc1c(C(=O)O)n(C)c3c-2c(Cl)ccc13 [AZD5991]; details: max 1 µM
Summary of the method: as §1

Etoposide = compound: COc1cc([C@@H]2c3cc4c(cc3[C@@H](O[C@@H]3O[C@@H]5CO[C@@H](C)O[C@H]5[C@H](O)[C@H]3O)[C@H]3COC(=O)[C@H]23)OCO4)cc(OC)c1O [Etoposide]; details: max 10 µM
Summary of the method: as §1

[1] = compound: O=C(Nc1ccc2[nH]nc(-c3ccncc3)c2c1)[C@@H]1CCN(CC(=O)N2CCN(c3ccc(-c4ncccn4)cc3)CC2)C1; details: max 5 µM
Summary of the method: as §1

Olaparib = compound: O=C(c1cc(Cc2n[nH]c(=O)c3ccccc23)ccc1F)N1CCN(C(=O)C2CC2)CC1 [Olaparib]; details: max 10 µM
Summary of the method: as §1

5-Fluorouracil = compound: O=c1[nH]cc(F)c(=O)[nH]1 [5-Fluorouracil]; details: max 20 µM
Summary of the method: as §1

AZD0156 = compound: CN(C)CCCOc1ccc(-c2ccc3ncc4c(c3c2)n(C2CCOCC2)c(=O)n4C)cn1 [AZD0156]; details: max 3 µM
Summary of the method: as §1

Taselisib = compound: Cc1nc(-c2cn3c(n2)-c2ccc(-c4cnn(C(C)(C)C(N)=O)c4)cc2OCC3)n(C(C)C)n1 [Taselisib]; details: max 10 µM
Summary of the method: as §1

Lapatinib = compound: CS(=O)(=O)CCNCc1ccc(-c2ccc3ncnc(Nc4ccc(OCc5cccc(F)c5)c(Cl)c4)c3c2)o1 [Lapatinib]; details: max 10 µM
Summary of the method: as §1

Paclitaxel = compound: CC(=O)O[C@H]1C(=O)[C@@]2(C)[C@H]([C@H](OC(=O)c3ccccc3)[C@]3(O)C[C@H](OC(=O)[C@H](O)[C@@H](NC(=O)c4ccccc4)c4ccccc4)C(C)=C1C3(C)C)[C@]1(OC(C)=O)CO[C@@H]1C[C@@H]2O [Paclitaxel]; details: max 3 µM
Summary of the method: as §1

Dasatinib = compound: CC1=C(C(=CC=C1)Cl)NC(=O)C2=CN=C(S2)NC3=CC(=NC(=N3)C)N4CCN(CC4)CCO [Dasatinib]; details: max 2 µM
Summary of the method: as §1

AZD1775 = compound: C=CCn1c(=O)c2cnc(Nc3ccc(N4CCN(C)CC4)cc3)nc2n1-c1cccc(C(C)(C)O)n1 [AZD1775]; details: max 3 µM
Summary of the method: as §1

Savolitinib = compound: C[C@@H](c1ccc2nccn2c1)n1nnc2ncc(-c3cnn(C)c3)nc21 [Savolitinib]; details: max 1 µM
Summary of the method: as §1

Gemcitabine = compound: Nc1ccn([C@@H]2O[C@H](CO)[C@@H](O)C2(F)F)c(=O)n1 [Gemcitabine]; details: max 0.3 µM
Summary of the method: as §1

Alisertib = compound: COc1cc(Nc2ncc3c(n2)-c2ccc(Cl)cc2C(c2c(F)cccc2OC)=NC3)ccc1C(=O)O [Alisertib]; details: max 10 µM
Summary of the method: as §1

AZD2811 = compound: CCN(CCO)CCCOc1ccc2c(Nc3cc(CC(=O)Nc4cccc(F)c4)[nH]n3)ncnc2c1 [AZD2811]; details: max 1 µM
Summary of the method: as §1

AZD1390 = compound: CC(C)n1c(=O)n(C)c2cnc3cc(F)c(-c4ccc(OCCCN5CCCCC5)nc4)cc3c21 [AZD1390]; details: max 0.3 µM
Summary of the method: as §1

Crizotinib = compound: C[C@@H](Oc1cc(-c2cnn(C3CCNCC3)c2)cnc1N)c1c(Cl)ccc(F)c1Cl [Crizotinib]; details: max 10 µM
Summary of the method: as §1

AZD5153 = compound: COc1nnc2ccc(N3CCC(c4ccc(OCCN5CCN(C)C(=O)[C@H]5C)cc4)CC3)nn12 [AZD5153]; details: max 1 µM
Summary of the method: as §1

Cell Line	IC50, cell viability 72 h (AZD6738)	IC50, cell viability 72 h (AZD8186)	IC50, cell viability 72 h (SN-38)	IC50, cell viability 72 h (AZD7648)	IC50, cell viability 72 h (Trametinib)	IC50, cell viability 72 h (Selumetinib)	IC50, cell viability 72 h (Doxorubicin)	IC50, cell viability 72 h (AZD5363)	IC50, cell viability 72 h (Palbociclib)	IC50, cell viability 72 h (Carboplatin)	IC50, cell viability 72 h (AZD4320)	IC50, cell viability 72 h (Prexasertib)	IC50, cell viability 72 h (SRA737)	IC50, cell viability 72 h (Venetoclax)	IC50, cell viability 72 h (MK-2206)	IC50, cell viability 72 h (SG3199)	IC50, cell viability 72 h (Gefitinib)	IC50, cell viability 72 h (AZD5991)	IC50, cell viability 72 h (Etoposide)	IC50, cell viability 72 h [1]	IC50, cell viability 72 h (Olaparib)	IC50, cell viability 72 h (5-Fluorouracil)	IC50, cell viability 72 h (AZD0156)	IC50, cell viability 72 h (Taselisib)	IC50, cell viability 72 h (Lapatinib)	IC50, cell viability 72 h (Paclitaxel)	IC50, cell viability 72 h (Dasatinib)	IC50, cell viability 72 h (AZD1775)	IC50, cell viability 72 h (Savolitinib)	IC50, cell viability 72 h (Gemcitabine)	IC50, cell viability 72 h (Alisertib)	IC50, cell viability 72 h (AZD2811)	IC50, cell viability 72 h (AZD1390)	IC50, cell viability 72 h (Crizotinib)	IC50, cell viability 72 h (AZD5153)
KYSE-450 (Esophageal Squamous Cell Carcinoma)	> 10 µM	> 10 µM	> 300 nM	> 10 µM	> 1000 nM	> 10 µM	> 1000 nM	> 10 µM	> 10 µM	> 10 µM	> 1000 nM	226 nM	> 10 µM	> 1000 nM	> 10 µM	> 1 nM	> 10 µM	> 1000 nM	> 10000 nM	> 5000 nM	> 10 µM	> 20 µM	> 3000 nM	7520 nM	> 10 µM	67.7 nM	> 2000 nM	614 nM	> 1000 nM	> 300 nM	> 10 µM	> 1000 nM	> 300 nM	> 10 µM	> 1000 nM
YH-13 (Glioblastoma)	> 10 µM	2.85 µM	159 nM	> 10 µM	> 1000 nM	> 10 µM	> 1000 nM	> 10 µM	> 10 µM	> 10 µM	> 1000 nM	76.3 nM	> 10 µM	> 1000 nM	> 10 µM	> 1 nM	> 10 µM	> 1000 nM	> 10000 nM	> 5000 nM	> 10 µM	> 20 µM	> 3000 nM	2990 nM	> 10 µM	3.82 nM	837 nM	> 3000 nM	> 1000 nM	114 nM	> 10 µM	> 1000 nM	> 300 nM	> 10 µM	534 nM
MLMA (Other Blood Carcinomas)	4.31 µM	2.94 µM	16.3 nM	> 10 µM	> 1000 nM	> 10 µM	116 nM	8.83 µM	> 10 µM	> 10 µM	> 1000 nM	2.19 nM	0.934 µM	272 nM	1.76 µM	> 1 nM	> 10 µM	> 1000 nM	2200 nM	> 5000 nM	> 10 µM	> 20 µM	> 3000 nM	982 nM	> 10 µM	13.7 nM	548 nM	144 nM	> 1000 nM	22.8 nM	6.31 µM	> 1000 nM	> 300 nM	9.93 µM	55.5 nM
MIA-PaCa-2 (Pancreatic Carcinoma)	8.72 µM	> 10 µM	14.6 nM	> 10 µM	150 nM	3.37 µM	183 nM	> 10 µM	> 10 µM	> 10 µM	> 1000 nM	67.4 nM	> 10 µM	> 1000 nM	> 10 µM	> 1 nM	> 10 µM	> 1000 nM	2890 nM	2110 nM	> 10 µM	> 20 µM	> 3000 nM	> 10000 nM	> 10 µM	39.5 nM	> 2000 nM	> 3000 nM	> 1000 nM	101 nM	3.49 µM	> 1000 nM	> 300 nM	> 10 µM	165 nM
NB69 (Neuroblastoma)	3.13 µM	7.65 µM	2.16 nM	> 10 µM	3.07 nM	0.232 µM	77.2 nM	> 10 µM	0.491 µM	> 10 µM	226 nM	89.9 nM	> 10 µM	> 1000 nM	> 10 µM	> 1 nM	> 10 µM	201 nM	166 nM	27.2 nM	> 10 µM	8.72 µM	> 3000 nM	487 nM	9.9 µM	15 nM	141 nM	444 nM	> 1000 nM	16 nM	0.238 µM	470 nM	> 300 nM	2.54 µM	37.7 nM
